Assay results reported in article PMC7462607 (eLife, 2020).
“And” between values parts separate entries of the source, which are not always exact repeats. Equal entries are not always repeated. Where two headings read alike, the source gives them in different places.

What was measured:
HCT-116 cells = assay: Cell viability assay, parental HCT-116 and HQ461-resistant HCT-116 clones; assay type: cell-based, Homo sapiens; conditions: for CellTiter-Glo (ATP): raw signal, listed as 0461; for IC50: Homo sapiens, HCT-116
Description: (§1) Seven hundred A549 cells or 1,000 HCT-116 cells in 50 µL of medium were plated per well in 384-well flat clear bottom white polystyrene TC-treated microplates (Corning, Corning, USA). After overnight attachment, cells were dosed with a serial dilution of HQ461 with a D300e digital dispenser (Tecan, Männedorf, Switzerland). Cell survival was measured 72 hr later using CellTiter-Glo luminescent cell viability assay kit (Promega, Madison, USA) following vendor instructions. Luminescence was recorded by EnVison multimode plate reader (PerkinElmer, Waltham, USA). IC50 was determined with GraphPad Prism using baseline correction (by normalizing to DMSO control), the asymmetric (five parameter) equation, and least squares fit.
Parental HCT-116 were plated sparsely on 10 cm plates to allow the isolation of ten individual clones. Each of these ten clones were expanded to one confluent 15 cm plate to establish ten independent cell populations. One million cells from each population were then plated on one 10 cm plate and treated with 20 µM HQ461 continuously for two weeks, with media change every 3 to 4 days. HQ461 resistant clones emerged from 5 out of the 10 populations. These clones were isolated, expanded, and tested for their sensitivity to HQ461 using cell viability assay. Five HQ461-resistant clones selected from independent populations were subjected to genomic DNA isolation as described in the previous session. Their genomic DNAs were then pooled in equal amounts for whole-exome sequencing at 200x average coverage (Novogene, Beijing, China). As a control, genomic DNAs isolated from the corresponding cell populations before HQ461 selection were also pooled for whole-exome sequencing. Raw sequencing data have been deposited to NCBI GEO (GSE153707).

CCNK = assay: In vivo polyubiquitination of CCNK (HEK293T); assay type: cell-based, Homo sapiens; conditions: wild-type CDK12 co-expressed
Description: Wild-type and G731E/R ORFs of 3 × FLAG-CDK12, either full length or the kinase domain (from resides 715–1052), were cloned into the pCDNA3.1-N-3xFLAG vector. An ORF encoding CCNK (NM_001099402.2) was PCR amplified with A549 cDNA and cloned into a pCDNA3.1-C-3xHA vector. pCMV-8 ×His Ub was a gift from Dr. William Kaelin at Dana Farber Cancer Institute of Harvard. To set up cells for the in vivo ubiquitination assay, 0.6 million HEK293T cells were seeded per well in six-well tissue-culture plates. After overnight attachment, these cells were transfected with 500 ng of pCMV 8 × His Ub, 25 ng of pCDNA3.1-CCNK-3xHA, and 50 ng of pCDNA3.1-3xFLAG-CDK12. Two days later, cells were pretreated with 1 µM of bortezomib for 2 hr, followed by treatment with DMSO or three doses of HQ461 (1, 3, 10 µM) for 4 hr. Cells from each well were rinsed once with DPBS and lysed in 500 μL of buffer 1 (25 mM Tris-HCl, pH 8.0, 8 M urea, 10 mM imidazole) freshly supplemented with one units/µL of benzonase and 1x cOmplete, Mini, EDTA-free protease inhibitor cocktail (Roche, Bazel, Switzerland). Lysates were clarified by spinning at 15,000 xg at 4°C for 10 min. Clarified lysate of each sample was mixed with 10 µL of Ni NTA magarose beads (SMART Life Sciences, Changzhou, China, SM00801) prewashed with lysis buffer. […]

[1] = tested on: A549 cells stably expressing 3xFLAG-CDK12 WT/G731E/G731R; assay: Cell viability assay, A549 cells stably expressing wild-type or G731E/R mutant CDK12; assay type: cell-based; conditions: Homo sapiens
Description: as §1
An ORF encoding CDK12 isoform 2 (NM_015083.3) was PCR amplified from A549 cDNA and cloned into a pCDNA3.1-N-3xFLAG vector which was derived from the pCDNA3.1 vector. G731E and G731R mutations in CDK12 were introduced by overlap extension PCR. After sequencing verification, wild-type and mutant 3xFLAG-CDK12 sequences were subcloned into lentiCas9-Blast (Addgene 52962) by replacing the Cas9 ORF with 3xFLAG-CDK12. The resulting lenti-EF1α−3xFLAG-CDK12-P2A-BSD WT/GE/GR constructs were packaged into lentiviral vectors to transduce A549 cells. Stable cell lines were obtained by selection with 20 µg/ml of blasticidin.

In the case of `Cc1cccc(Nc2nc(CC(=O)Nc3ncc(C)s3)cs2)n1` [HQ461, 2-(2-((6-methylpyridin-2-yl)amino)thiazol-4-yl)-N-(5-methylthiazol-2-yl)acetamide], the “CellTiter-Glo (ATP)” value (HCT-116 cells; HCT-116 Parental, 1.43856e-6 M) is reported as 1.76E+06 and 1.77E+06 and 2.14E+06 and 2.07E+06, the “CellTiter-Glo (ATP)” value (HCT-116 cells; HCT-116 Parental, 1.85257e-5 M) is reported as 147560 and 197570 and the “CellTiter-Glo (ATP)” value (HCT-116 cells; HCT-116 Parental, 1.91632e-5 M) is reported as 303300 and 182560. For the same compound, the “CellTiter-Glo (ATP)” value (HCT-116 cells; HCT-116 Parental, 3.09439e-5 M) was 96830 and 121990, the “CellTiter-Glo (ATP)” value (HCT-116 cells; HCT-116 Parental, 3.21364e-5 M) was 122490 and 116460 and the “CellTiter-Glo (ATP)” value (HCT-116 cells; HCT-116 Parental, 5.00E-07 M) was 1.93E+06 and 2.16E+06. For the same compound, the “CellTiter-Glo (ATP)” value (HCT-116 cells; HCT-116 Parental, 5.19E-07 M) was 1.68E+06 and 1.79E+06, the “CellTiter-Glo (ATP)” value (HCT-116 cells; HCT-116 Parental, 7.99E-07 M) was 2.18E+06 and 1.85E+06 and the “CellTiter-Glo (ATP)” value (HCT-116 cells; HCT-116 Parental, 8.79E-07 M) was 1.85E+06 and 1.84E+06. For the same compound, the “CellTiter-Glo (ATP)” value (HCT-116 cells; HCT-116 resistant clone 2R, 1.27872e-6 M) was 1.68E+06 and 1.80E+06, the “CellTiter-Glo (ATP)” value (HCT-116 cells; HCT-116 resistant clone 2R, 1.35864e-6 M) was 1.87E+06 and 1.72E+06 and the “CellTiter-Glo (ATP)” value (HCT-116 cells; HCT-116 resistant clone 2R, 1.71705e-5 M) was 742920 and 664400. For the same compound, the “CellTiter-Glo (ATP)” value (HCT-116 cells; HCT-116 resistant clone 2R, 1.78082e-5 M) was 650900 and 675880, the “CellTiter-Glo (ATP)” value (HCT-116 cells; HCT-116 resistant clone 2R, 2.87969e-5 M) was 418620 and 384180 and the “CellTiter-Glo (ATP)” value (HCT-116 cells; HCT-116 resistant clone 2R, 2.98307e-5 M) was 380430 and 316510. For the same compound, the “CellTiter-Glo (ATP)” value (HCT-116 cells; HCT-116 resistant clone 2R, 7.99E-07 M) was 1.71E+06 and 1.76E+06 and 1.66E+06 and 1.65E+06, the “CellTiter-Glo (ATP)” value (HCT-116 cells; HCT-116 resistant clone 5R, 1.1988e-6 M) was 1.40E+06 and 1.72E+06 and the “CellTiter-Glo (ATP)” value (HCT-116 cells; HCT-116 resistant clone 5R, 1.27872e-6 M) was 1.47E+06 and 1.50E+06. The “CellTiter-Glo (ATP)” value (HCT-116 cells; HCT-116 resistant clone 5R, 1.59745e-5 M) was 708690 and 643890, the “CellTiter-Glo (ATP)” value (HCT-116 cells; HCT-116 resistant clone 5R, 1.65326e-5 M) was 713930 and 686510 and the “CellTiter-Glo (ATP)” value (HCT-116 cells; HCT-116 resistant clone 5R, 2.67284e-5 M) was 402240 and 357240. For the same compound, the “CellTiter-Glo (ATP)” value (HCT-116 cells; HCT-116 resistant clone 5R, 2.77628e-5 M) was 421400 and 366190, the “CellTiter-Glo (ATP)” value (HCT-116 cells; HCT-116 resistant clone 5R, 7.19E-07 M) was 1.56E+06 and 1.54E+06 and 1.42E+06 and 1.57E+06 and the “CellTiter-Glo (ATP)” value (HCT-116 cells; HCT-116 resistant clone 6R, 1.11888e-6 M) was 1.62E+06 and 1.45E+06. The “CellTiter-Glo (ATP)” value (HCT-116 cells; HCT-116 resistant clone 6R, 1.1988e-6 M) was 1.35E+06 and 1.55E+06, the “CellTiter-Glo (ATP)” value (HCT-116 cells; HCT-116 resistant clone 6R, 1.48579e-5 M) was 838610 and 815000 and the “CellTiter-Glo (ATP)” value (HCT-116 cells; HCT-116 resistant clone 6R, 1.54163e-5 M) was 808740 and 730030. The “CellTiter-Glo (ATP)” value (HCT-116 cells; HCT-116 resistant clone 6R, 2.48182e-5 M) was 327830 and 270480, the “CellTiter-Glo (ATP)” value (HCT-116 cells; HCT-116 resistant clone 6R, 2.57734e-5 M) was 314810 and 296570 and the “CellTiter-Glo (ATP)” value (HCT-116 cells; HCT-116 resistant clone 6R, 6.71E-07 M) was 1.36E+06 and 1.56E+06. The “CellTiter-Glo (ATP)” value (HCT-116 cells; HCT-116 resistant clone 6R, 6.95E-07 M) was 1.61E+06 and 1.53E+06, the “CellTiter-Glo (ATP)” value (HCT-116 cells; HCT-116 resistant clone 8R, 1.03896e-6 M) was 1.50E+06 and 1.58E+06 and the “CellTiter-Glo (ATP)” value (HCT-116 cells; HCT-116 resistant clone 8R, 1.11888e-6 M) was 1.51E+06 and 1.63E+06. For the same compound, the “CellTiter-Glo (ATP)” value (HCT-116 cells; HCT-116 resistant clone 8R, 1.42995e-5 M) was 543300 and 1.00E+06, the “CellTiter-Glo (ATP)” value (HCT-116 cells; HCT-116 resistant clone 8R, 2.30667e-5 M) was 427880 and 390970 and the “CellTiter-Glo (ATP)” value (HCT-116 cells; HCT-116 resistant clone 8R, 2.39426e-5 M) was 409850 and 403510. For the same compound, the “CellTiter-Glo (ATP)” value (HCT-116 cells; HCT-116 resistant clone 8R, 4.00787e-5 M) was 298050 and 276140, the “CellTiter-Glo (ATP)” value (HCT-116 cells; HCT-116 resistant clone 8R, 6.23E-07 M) was 1.45E+06 and 1.63E+06 and the “CellTiter-Glo (ATP)” value (HCT-116 cells; HCT-116 resistant clone 8R, 6.47E-07 M) was 1.55E+06 and 1.60E+06. The “CellTiter-Glo (ATP)” value (HCT-116 cells; HCT-116 resistant clone 9R, 1.03896e-6 M) was 288440 and 333120, the “CellTiter-Glo (ATP)” value (HCT-116 cells; HCT-116 resistant clone 9R, 2.13941e-5 M) was 65580 and 36800 and the “CellTiter-Glo (ATP)” value (HCT-116 cells; HCT-116 resistant clone 9R, 2.22704e-5 M) was 50040 and 30190. The “CellTiter-Glo (ATP)” value (HCT-116 cells; HCT-116 resistant clone 9R, 3.58708e-5 M) was 46680 and 23830, the “CellTiter-Glo (ATP)” value (HCT-116 cells; HCT-116 resistant clone 9R, 3.72209e-5 M) was 43970 and 22740 and the “CellTiter-Glo (ATP)” value (HCT-116 cells; HCT-116 resistant clone 9R, 5.79E-07 M) was 315200 and 382800. For the same compound, the “CellTiter-Glo (ATP)” value (HCT-116 cells; HCT-116 resistant clone 9R, 5.99E-07 M) was 335950 and 324000, the “CellTiter-Glo (ATP)” value (HCT-116 cells; HCT-116 resistant clone 9R, 9.59E-07 M) was 277130 and 355980 and the “increase of IC50 relative to parental HCT-116 cells” value (HCT-116 cells; HQ461-resistant HCT-116 clones) was “three-fold”. For the same compound, the IC50 (HCT-116 cells; five HQ461-resistant clones, read-out: IC50 on the viability of five HQ461-resistant HCT-116 clones) was 13 to 14.3 µM, the IC50 (HCT-116 cells; read-out: IC50 on the viability of parental HCT-116) was 4.6 µM and the “CCNK polyubiquitination in cells” value (CCNK) was “increased CCNK polyubiquitination”. For the same compound, the IC50 ([1]; CDK12 G731E, read-out: IC50 on the viability of A549 cells stably expressing G731E mutant CDK12) was 16.9 µM, the IC50 ([1]; CDK12 G731R, read-out: IC50 on the viability of A549 cells stably expressing G731R mutant CDK12) was 22.9 µM and the IC50 ([1]; read-out: IC50 on the viability of A549 cells stably expressing wild-type CDK12) was 1.3 µM.
